From US20240287046A1, “COMPOUNDS AND RADIOLIGANDS FOR TARGETING NEUROTENSIN RECEPTOR AND USES THEREOF” (Full-Life Technologies HK Limited, priority 2022, published 2024)

Tested on: ASPC-1 tumor
Assay: In vivo efficacy of ^225Ac therapy
Conditions: ASPC-1 tumor-bearing mice
Description: In vivo efficacy of the ^177Lu labeled complexes and ^225Ac labeled complexes of the present application was evaluated in ASPC-1 tumor-bearing mice. For ^177Lu therapy study, animals in each group were dosed with vehicle or 0.6 mCi activity of the radiolabeled complexes at Day 1 and Day 5, respectively. For ^225Ac therapy studies, animals in each group were administered with a single dose of vehicle, 18, 37 or 74 KBq activity of the radiolabeled complexes, respectively.
The tumor volume (V) was determined according to the equation (V=[…]×L×W×H) at different time points, where L is the longest axis and W is the perpendicular axis to L, and H is the perpendicular axis to L and W plane. Endpoint (sacrifice) criteria were defined as either when the tumor volume exceeded 1.5 cm^3, or 20% body weight loss.

COc1cccc(OC)c1-c1cc(C(=O)NC2(C(=O)O)C3CC4CC(C3)CC2C4)nn1-c1ccc(OCCCN(C)CCCN(C)C(=O)CN2CCN(CC(=O)[O-])CCN(CC(=O)[O-])CCN(CC(=O)[O-])CC2)cc1C(C)C.[225Ac+3] (centres unmarked) [^225Ac—I-7]
tumor inhibition compared to the vehicle group (single dose of 18, 37 or 74 KBq): significant tumor inhibition | dose sufficient to achieve the maximal effect (single dose): 37 KBq
